Source: patent publication US20250163119A1, “COMPOUNDS FOR THE TREATMENT OF DIABETES OR OBESITY” (Eli Lilly and Company, priority 2023, published 2025)
Values joined by “and” are separate entries in the source; they are usually repeats but may differ in a detail not shown here. Identical values can stand only once. *1 amine or outer side, *2 acyl side, *3 side chain or, on linkers, in order; H or OH if unused. [ ]: non-standard residue; d: D form. The star is where a group is joined. C20 diacid = O=C(O)CCCCCCCCCCCCCCCCCCC(=O)*; γGlu = O=C(O)[C@H](CCC(=O)[*:2])N[*:1]; εLys = N[C@@H](CCCCN[*:1])C(=O)[*:2]; αMeL = CC(C)C[C@](C)(N)C(=O)O; AEEA = NCCOCCOCC(=O)O; Aib = CC(C)(N)C(=O)O

Columns and labels:
[1] = Pharmacokinetics in Yucatan mini-pigs, single subcutaneous or intravenous dose; assay type: in vivo; conditions: for Tmax: read-out: Tmax
Summary of the method: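 Male mini-pigs received one SC or IV dose (19 or 99 nmol/kg) in 40 mM Tris-HCl 5% D-mannitol, pH 8. Blood sampled 0.083 (IV only) to 504 h postdose. Plasma levels measured by LC/MS after extraction and SPE, Orbitrap detection.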

[2] = Pharmacokinetics in Sprague Dawley rats, single subcutaneous or intravenous dose (incl. 10, 30, 100 nmol/kg dose response); assay type: in vivo
[3] = male Yucatan pigs, single subcutaneous dose 19 nmol/kg, individual animal
[4] = male, Yucatan mini-pig, minipig, plasma, iv, 19 nmol/kg, single intravenous dose 19 nmol/kg, individual animal
[5] = male, Yucatan mini-pig, minipig, plasma, iv, 19 nmol/kg, single intravenous dose 19 nmol/kg, mean
[6] = male, Yucatan mini-pig, minipig, plasma, sc, 19 nmol/kg, single subcutaneous dose 19 nmol/kg, Mean
[7] = male, Yucatan mini-pig, minipig, plasma, sc, 19 nmol/kg, single subcutaneous dose 19 nmol/kg, individual animal
[8] = single intravenous dose 19 nmol/kg, male Yucatan pigs, individual animal
[9] = dose response, single subcutaneous dose 10 nmol/kg, male Sprague Dawley rats, individual animal
[10] = dose response, single subcutaneous dose 30 nmol/kg, male Sprague Dawley rats, individual animal
[11] = dose response, single subcutaneous dose 100 nmol/kg, male Sprague Dawley rats, individual animal
[12] = male Sprague Dawley rats, single intravenous dose 190 nmol/kg, individual animal
[13] = male, Sprague Dawley, rat, plasma, iv, 190 nmol/kg, single intravenous dose 190 nmol/kg, Mean
[14] = male, Sprague Dawley, rat, plasma, iv, 190 nmol/kg, single intravenous dose 190 nmol/kg, individual animal
[15] = single subcutaneous dose 190 nmol/kg, male Sprague Dawley rats, individual animal

AUC0-inf ([1]; Yucatan mini-pig, minipig, plasma, sc, male Yucatan pigs, single subcutaneous dose 19 nmol/kg, Mean, read-out: AUC0-inf): 27.6 µM·h
Cmax ([1]; Yucatan mini-pig, minipig, plasma, sc, male Yucatan pigs, single subcutaneous dose 19 nmol/kg, Mean, read-out: Cmax): 170 nM
AUC0-inf [1, 3]: 28.3 µM·h and 26.8 µM·h
CL/F [1, 3]: 0.012 mL/min/kg
Cmax [1, 3]: 159 nM and 181 nM
T1/2 [1, 3]: 70.4 h
clearance [1, 4]: 0.00755 mL/min/kg
half-life [1, 4]: 106 h
clearance [1, 5]: 0.00803 mL/min/kg
half-life [1, 5]: 96.4 h
half-life [1, 6]: 75.6 h
CL/F ([1]; male, Yucatan mini-pig, minipig, plasma, sc, 19 nmol/kg, single subcutaneous dose 19 nmol/kg, Mean, read-out: CL/F (converted)): 0.0116 mL/min/kg
Tmax [1, 6]: 24 h
half-life [1, 7]: 80.8 h
CL/F ([1]; male, Yucatan mini-pig, minipig, plasma, sc, 19 nmol/kg, single subcutaneous dose 19 nmol/kg, individual animal, read-out: CL/F (converted)): 0.0114 mL/min/kg
Tmax [1, 7]: 24 h
AUC0-inf ([1]; minipig, plasma, single intravenous dose 19 nmol/kg, male Yucatan pigs, mean, read-out: AUC0-inf): 39.6 µM·h
C0 ([1]; minipig, plasma, single intravenous dose 19 nmol/kg, male Yucatan pigs, mean, read-out: C0): 534 nM
AUC0-inf [1, 8]: 41.9 µM·h and 37.2 µM·h
C0 [1, 8]: 522 nM and 545 nM
CL [1, 8]: 0.0085 mL/min/kg
T1/2 [1, 8]: 86.8 h
CL/F [2, 9]: 0.175 mL/min/kg and 0.152 mL/min/kg
T1/2 [2, 9]: 18.6 h and 31.5 h
Tmax [2, 9]: 6 h
CL/F [2, 10]: 0.173 mL/min/kg and 0.17 mL/min/kg
T1/2 [2, 10]: 19.6 h and 20.8 h
Tmax [2, 10]: 6 h
CL/F [2, 11]: 0.119 mL/min/kg and 0.124 mL/min/kg
T1/2 [2, 11]: 17.4 h and 15.7 h
CL [2, 12]: 0.0673 mL/min/kg and 0.0512 mL/min/kg
T1/2 [2, 12]: 16.9 h and 18.2 h
clearance [2, 13]: 0.065 mL/min/kg
half-life [2, 13]: 17.5 h
clearance [2, 14]: 0.0765 mL/min/kg
half-life [2, 14]: 17.4 h
half-life ([2]; male, Sprague Dawley, rat, plasma, sc, 10 nmol/kg, dose response, single subcutaneous dose 10 nmol/kg, individual animal): 19.9 h
CL/F ([2]; male, Sprague Dawley, rat, plasma, sc, 10 nmol/kg, dose response, single subcutaneous dose 10 nmol/kg, individual animal, read-out: CL/F (converted)): 0.162 mL/min/kg
half-life ([2]; male, Sprague Dawley, rat, plasma, sc, 10 nmol/kg, dose response, single subcutaneous dose 10 nmol/kg, mean): 23.3 h
CL/F ([2]; male, Sprague Dawley, rat, plasma, sc, 10 nmol/kg, dose response, single subcutaneous dose 10 nmol/kg, mean, read-out: CL/F (converted)): 0.163 mL/min/kg
Tmax ([2]; male, Sprague Dawley, rat, plasma, sc, 10 nmol/kg, dose response, single subcutaneous dose 10 nmol/kg, mean, read-out: Tmax): 18 h
half-life ([2]; male, Sprague Dawley, rat, plasma, sc, 30 nmol/kg, dose response, single subcutaneous dose 30 nmol/kg, individual animal): 19.2 h
CL/F ([2]; male, Sprague Dawley, rat, plasma, sc, 30 nmol/kg, dose response, single subcutaneous dose 30 nmol/kg, individual animal, read-out: CL/F (converted)): 0.19 mL/min/kg
half-life ([2]; male, Sprague Dawley, rat, plasma, sc, 30 nmol/kg, dose response, single subcutaneous dose 30 nmol/kg, mean): 19.9 h
CL/F ([2]; male, Sprague Dawley, rat, plasma, sc, 30 nmol/kg, dose response, single subcutaneous dose 30 nmol/kg, mean, read-out: CL/F (converted)): 0.178 mL/min/kg
Tmax ([2]; male, Sprague Dawley, rat, plasma, sc, 30 nmol/kg, dose response, single subcutaneous dose 30 nmol/kg, mean, read-out: Tmax): 18 h
half-life ([2]; male, Sprague Dawley, rat, plasma, sc, 100 nmol/kg, dose response, single subcutaneous dose 100 nmol/kg, individual animal): 16 h
CL/F ([2]; male, Sprague Dawley, rat, plasma, sc, 100 nmol/kg, dose response, single subcutaneous dose 100 nmol/kg, individual animal, read-out: CL/F (converted)): 0.133 mL/min/kg
Tmax ([2]; male, Sprague Dawley, rat, plasma, sc, 100 nmol/kg, dose response, single subcutaneous dose 100 nmol/kg, individual animal, read-out: Tmax): 24 h
half-life ([2]; male, Sprague Dawley, rat, plasma, sc, 100 nmol/kg, dose response, single subcutaneous dose 100 nmol/kg, mean): 16.4 h
CL/F ([2]; male, Sprague Dawley, rat, plasma, sc, 100 nmol/kg, dose response, single subcutaneous dose 100 nmol/kg, mean, read-out: CL/F (converted)): 0.126 mL/min/kg
Tmax ([2]; male, Sprague Dawley, rat, plasma, sc, 100 nmol/kg, dose response, single subcutaneous dose 100 nmol/kg, mean, read-out: Tmax): 24 h
half-life ([2]; male, Sprague Dawley, rat, plasma, sc, 190 nmol/kg, single subcutaneous dose 190 nmol/kg, individual animal): 14.8 h
CL/F ([2]; male, Sprague Dawley, rat, plasma, sc, 190 nmol/kg, single subcutaneous dose 190 nmol/kg, individual animal, read-out: CL/F (converted)): 0.136 mL/min/kg
Tmax ([2]; male, Sprague Dawley, rat, plasma, sc, 190 nmol/kg, single subcutaneous dose 190 nmol/kg, individual animal, read-out: Tmax): 24 h
half-life ([2]; male, Sprague Dawley, rat, plasma, sc, 190 nmol/kg, single subcutaneous dose 190 nmol/kg, mean): 14.4 h
CL/F ([2]; male, Sprague Dawley, rat, plasma, sc, 190 nmol/kg, single subcutaneous dose 190 nmol/kg, mean, read-out: CL/F (converted)): 0.137 mL/min/kg
Tmax ([2]; male, Sprague Dawley, rat, plasma, sc, 190 nmol/kg, single subcutaneous dose 190 nmol/kg, mean, read-out: Tmax): 24 h
AUC0-inf ([2]; rat, plasma, sc, dose response, single subcutaneous dose 10 nmol/kg, male Sprague Dawley rats, mean, read-out: AUC0-inf): 1.04 µM·h
Cmax ([2]; rat, plasma, sc, dose response, single subcutaneous dose 10 nmol/kg, male Sprague Dawley rats, mean, read-out: Cmax): 23.2 nM
AUC0-inf ([2]; rat, plasma, sc, dose response, single subcutaneous dose 30 nmol/kg, male Sprague Dawley rats, mean, read-out: AUC0-inf): 2.84 µM·h
Cmax ([2]; rat, plasma, sc, dose response, single subcutaneous dose 30 nmol/kg, male Sprague Dawley rats, mean, read-out: Cmax): 60.7 nM
AUC0-inf ([2]; rat, plasma, sc, dose response, single subcutaneous dose 100 nmol/kg, male Sprague Dawley rats, mean, read-out: AUC0-inf): 13.3 µM·h
Cmax ([2]; rat, plasma, sc, dose response, single subcutaneous dose 100 nmol/kg, male Sprague Dawley rats, mean, read-out: Cmax): 294 nM
AUC0-inf ([2]; rat, plasma, sc, single subcutaneous dose 190 nmol/kg, male Sprague Dawley rats, mean, read-out: AUC0-inf): 23.2 µM·h
Cmax ([2]; rat, plasma, sc, single subcutaneous dose 190 nmol/kg, male Sprague Dawley rats, mean, read-out: Cmax): 508 nM
AUC0-inf ([2]; rat, plasma, male Sprague Dawley rats, single intravenous dose 190 nmol/kg, Mean, read-out: AUC0-inf): 50 µM·h
C0 ([2]; rat, plasma, male Sprague Dawley rats, single intravenous dose 190 nmol/kg, Mean, read-out: C0): 2920 nM
CL/F [2, 15]: 0.147 mL/min/kg and 0.128 mL/min/kg
T1/2 [2, 15]: 13.9 h and 14.5 h
Substance: {C20 diacid-εLys-AEEA-γGlu}-GSPSIVTS[αMeL]DVPT[Aib][αMeL]LQKILEQERAEKARQQATEAAEILAQV-NH2 [SEQ ID NO: 25]
AUC0-inf [2, 9]: 1.05 µM·h and 0.972 µM·h and 1.11 µM·h
Cmax [2, 9]: 20.8 nM and 21.9 nM and 26.8 nM
AUC0-inf [2, 10]: 2.64 µM·h and 2.91 µM·h and 2.96 µM·h
Cmax [2, 10]: 55.0 nM and 68.0 nM and 59.1 nM
AUC0-inf [2, 11]: 12.5 µM·h and 14 µM·h and 13.4 µM·h
Cmax [2, 11]: 239 nM and 316 nM and 328 nM
AUC0-inf [2, 12]: 41.3 µM·h and 46.9 µM·h and 61.8 µM·h
C0 [2, 12]: 1610 nM and 3540 nM and 3610 nM
AUC0-inf [2, 15]: 23.4 µM·h and 21.6 µM·h and 24.7 µM·h
Cmax [2, 15]: 466 nM and 475 nM and 582 nM
